{"source": "paper PMC6768063", "about": "(Journal of computer-aided molecular design, 2019)", "key": {"D2 receptor [1]": {"molecular_target": "T1, D2 receptor (Homo sapiens, UniProt P14416)", "T1 sequence (P14416 whole entry)": "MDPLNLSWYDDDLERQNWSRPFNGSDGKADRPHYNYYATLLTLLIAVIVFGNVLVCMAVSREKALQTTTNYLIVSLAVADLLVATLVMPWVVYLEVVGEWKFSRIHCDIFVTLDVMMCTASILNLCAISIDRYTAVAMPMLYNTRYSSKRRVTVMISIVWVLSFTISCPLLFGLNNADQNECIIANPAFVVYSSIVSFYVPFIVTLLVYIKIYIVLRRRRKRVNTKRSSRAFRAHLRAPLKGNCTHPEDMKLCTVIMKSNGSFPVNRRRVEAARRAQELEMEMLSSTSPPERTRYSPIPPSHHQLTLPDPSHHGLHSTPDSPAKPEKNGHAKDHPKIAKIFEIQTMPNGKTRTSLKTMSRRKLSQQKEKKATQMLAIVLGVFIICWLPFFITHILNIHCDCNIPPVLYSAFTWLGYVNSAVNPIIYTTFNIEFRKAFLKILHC", "conditions": "cited from earlier work"}, "D2 receptor [2]": {"molecular_target": "T1, D2 receptor", "experiment": "calcium flux assay", "type": "cell-based", "conditions": "for pEC50: read-out: EC50, agonist effect (calcium flux), D2/CHO-K1 cells, agonist mode"}, "D1 receptor [3]": {"molecular_target": "T2, D1 receptor (Homo sapiens, UniProt P21728)", "T2 sequence (P21728 whole entry)": "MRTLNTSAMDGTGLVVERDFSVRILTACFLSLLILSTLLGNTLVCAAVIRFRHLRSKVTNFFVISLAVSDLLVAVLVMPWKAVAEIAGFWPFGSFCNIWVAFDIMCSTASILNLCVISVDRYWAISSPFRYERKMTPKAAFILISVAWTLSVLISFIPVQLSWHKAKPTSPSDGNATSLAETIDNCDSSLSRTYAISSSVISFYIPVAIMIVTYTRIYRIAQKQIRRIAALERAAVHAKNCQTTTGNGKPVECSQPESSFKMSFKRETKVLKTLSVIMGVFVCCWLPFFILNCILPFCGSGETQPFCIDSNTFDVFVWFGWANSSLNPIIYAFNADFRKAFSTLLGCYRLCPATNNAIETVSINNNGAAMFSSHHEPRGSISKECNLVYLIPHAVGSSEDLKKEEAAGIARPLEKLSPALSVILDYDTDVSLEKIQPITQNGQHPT", "experiment": "cAMP assay", "type": "cell-based", "conditions": "for pEC50: read-out: EC50, agonist effect (cAMP production), CHO-K1/D1 cells, agonist mode"}, "D2 receptor [4]": {"molecular_target": "T1, D2 receptor", "conditions": "cited from earlier work", "remark": "listed apart in the source"}, "D3 receptor": {"system": "D3 receptor", "conditions": "cited from earlier work"}, "D1 receptor [5]": {"molecular_target": "T2, D1 receptor", "conditions": "cited from earlier work"}, "5-HT1A receptor": {"system": "5-HT1A receptor", "conditions": "cited from earlier work"}}, "note": "pEC50, pIC50: −log10 of the molar value.", "data": [{"smiles": "COc1cc2c(cc1OC)[C@@H]1Cc3ccc(OC)c(OC)c3CN1CC2", "note": "[l-THP, l-tetrahydropalmatine]", "values": [{"measurement": "binding affinity for the D2 receptor (in words)", "setting": "D2 receptor [1]", "result": "high binding affinity"}]}, {"smiles": "CN1CCc2cc(Cl)c(O)cc2[C@@H](c2ccccc2)C1", "note": "[SCH23390, reference compound]", "values": [{"measurement": "pIC50", "setting": "D2 receptor [2]", "result": 5.39}]}, {"smiles": "COc1cc2c(cc1OC)[C@H]1Cc3ccc(OC)c(OC)c3CN1CC2", "note": "[d-THP]", "values": [{"measurement": "binding affinity for the D2 receptor (in words)", "setting": "D2 receptor [1]", "result": "low or absent affinity"}]}, {"smiles": "COc1ccc2c(c1O)CN1CCc3cc4c(cc3C1C2)OCO4", "note": "(stereo not drawn) [d-TU, Tetrahydroberberrubine]", "values": [{"measurement": "affinity against D2 receptor (in words)", "setting": "D2 receptor [2]; based on the calcium flux assay", "result": "no affinity"}, {"measurement": "pEC50", "setting": "D2 receptor [2]", "result": "< 5.00"}, {"measurement": "affinity against D1 receptor (in words)", "setting": "D1 receptor [3]; based on the cAMP assay", "result": "no affinity"}, {"measurement": "pEC50", "setting": "D1 receptor [3]", "result": "< 5.00"}]}, {"smiles": "COc1ccc2c(c1O)CN1CCc3cc4c(cc3C1C2)OCO4", "note": "(stereo not drawn) [l-TU, Tetrahydroberberrubine]", "values": [{"measurement": "binding affinity for D2 receptor (in words)", "setting": "D2 receptor [4]", "result": "high binding affinities"}, {"measurement": "pEC50", "setting": "D2 receptor [2]", "result": "< 5.00"}, {"measurement": "binding affinity for D3 receptor (in words)", "setting": "D3 receptor", "result": "high binding affinities"}, {"measurement": "binding affinity for D1 receptor (in words)", "setting": "D1 receptor [5]", "result": "high binding affinities"}, {"measurement": "binding affinity for 5-HT1A receptor (in words)", "setting": "5-HT1A receptor", "result": "high binding affinities"}, {"measurement": "pEC50", "setting": "D1 receptor [3]", "result": "< 5.00"}]}]}
